Laboratory results as given in US10940139B2, “Compounds that interact with the Ras superfamily for the treatment of cancers, inflammatory diseases, rasopathies, and fibrotic disease” (Shy Therapeutics LLC, priority 2017, dated 2021).

Assays:
[1] = biological target: Rho-A (Homo sapiens (Human), UniProt P61586); assay: Rho inhibition assay (labeled GTP); assay type: binding; conditions: read-out: Rho-A % Inh.
[2] = biological target: Rac-1 (Homo sapiens (Human), UniProt P63000); assay: Rac inhibition assay (labeled GTP); assay type: binding; conditions: read-out: Rac-1 % Inh.
[3] = biological target: KRas G12D mutant protein (Homo sapiens (Human), UniProt P01116, G12D); assay: Ras GTP binding domain inhibition assay (labeled GTP); conditions: at 20 μM; read-out: KRas G12D % Inh.
[4] = biological target: KRas G12D/Q61H double mutant (Homo sapiens (Human), UniProt P01116, G12D/Q61H); assay: as above; conditions: at 20 μM; read-out: KRas G12D Q61H % Inh.
How it was run: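 Fluorescence read-out of Cy3-/Cy5-GTP remaining bound to nickel-immobilized His-KRas after washes. Protein was coated overnight at 4° C, then exposed to compound for 3 h at room temperature before a 45 min labeled-GTP incubation.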

Sequence of KRas G12D/Q61H double mutant (P01116-2 other isoform, or with tags, fused parts or gaps G12D/Q61H): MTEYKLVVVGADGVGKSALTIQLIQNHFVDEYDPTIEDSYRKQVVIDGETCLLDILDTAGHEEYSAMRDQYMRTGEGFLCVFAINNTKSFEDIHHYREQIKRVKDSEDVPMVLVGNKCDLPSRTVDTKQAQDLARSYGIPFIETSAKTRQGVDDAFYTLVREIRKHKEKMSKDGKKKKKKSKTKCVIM
Sequence of Rho-A (P61586 whole entry): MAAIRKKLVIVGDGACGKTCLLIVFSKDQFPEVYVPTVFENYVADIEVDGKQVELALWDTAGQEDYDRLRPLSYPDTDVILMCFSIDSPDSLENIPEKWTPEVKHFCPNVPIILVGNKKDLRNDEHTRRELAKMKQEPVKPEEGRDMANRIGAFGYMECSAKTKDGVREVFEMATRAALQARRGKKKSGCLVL
Sequence of KRas G12D mutant protein (P01116-2 other isoform, or with tags, fused parts or gaps G12D): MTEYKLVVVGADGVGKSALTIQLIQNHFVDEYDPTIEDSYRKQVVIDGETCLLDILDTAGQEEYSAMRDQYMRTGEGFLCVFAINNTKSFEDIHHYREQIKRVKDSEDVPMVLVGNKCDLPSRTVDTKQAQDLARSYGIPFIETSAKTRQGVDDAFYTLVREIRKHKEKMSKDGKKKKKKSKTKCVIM

Compound | inhibition at 20 µM [1] [%] | inhibition at 20 µM [2] [%] | inhibition at 20 µM [3] [%] | inhibition at 20 µM [4] [%]
Oc1nc(-c2ccccn2)nc2sc3c(c12)CCCNC3 [drawing 3724] | 51 to 75 | 76 to 100 | 51 to 75 | 25 to 50
Oc1nc(-c2ccccn2)nc2c(-c3ccccn3)csc12 [drawing 3768] | 51 to 75 | 51 to 75 | 25 to 50 | 1 to 25
Oc1nc(-c2ccccn2)nc2sccc12 [drawing 3624] | 76 to 100 | 76 to 100 | 25 to 50 | 51 to 75
CC1CN(c2ccccc2)CCN1C(=O)c1csc2c(O)nc(-c3ccccn3)nc12 (stereo not shown) [drawing 3650] | 76 to 100 | 76 to 100 | 76 to 100 | 51 to 75
Oc1nc(-c2ccccn2)nc2sc3c(c12)CCNC3 [drawing 3723] | 76 to 100 | 76 to 100 | 76 to 100 | 51 to 75
Nc1nc(-c2ccccn2)nc2ccsc12 [drawing 3706] | 76 to 100 | 76 to 100 | 1 to 25 | 25 to 50
CN(C)Cc1ccc(F)c(-c2csc3c(O)nc(-c4ccccn4)nc23)c1 [drawing 3773] | 76 to 100 | 51 to 75 | 51 to 75 | 25 to 50
COc1c(O)nc(-c2ccccn2)nc1Oc1cccc(C(F)(F)F)c1 [drawing 3875] | 76 to 100 | 51 to 75 | 76 to 100 | 51 to 75
CC(C)c1csc2c(O)nc(-c3ccccn3)nc12 [drawing 3806] | 51 to 75 | 51 to 75 | 51 to 75 | 51 to 75
Oc1nc(-c2ccccn2)nc2c(-c3ccccc3Cl)csc12 [drawing 3626] | 76 to 100 | 76 to 100 | 25 to 50 | 51 to 75
Oc1cccc(-c2csc3c(O)nc(-c4ccccn4)nc23)n1 [drawing 3817] | 76 to 100 | 76 to 100 | 51 to 75 | 51 to 75
O=C(c1csc2c(O)nc(-c3ccccn3)nc12)N1CCC(c2cccc(O)c2)C1 (stereo not shown) [drawing 3712] | 76 to 100 | 76 to 100 | 76 to 100 | 76 to 100
O=C(c1csc2c(O)nc(-c3ccccn3)nc12)N1CCOC(c2ccccc2Cl)C1 (stereo not shown) [drawing 3658] | 76 to 100 | 51 to 75 | 25 to 50 | 51 to 75
COc1nc(-c2ccccn2)nc2c1c(-c1ccccc1)nn2-c1ccccn1 [drawing 3858] | 76 to 100 | 76 to 100 | 51 to 75 | 51 to 75
CN1CCN(c2nc(-c3ccccn3)nc3scc(C(=O)NCCc4cnc(O)nc4)c23)CC1 [drawing 3771] | 51 to 75 | 51 to 75 | 51 to 75 | 25 to 50
Cc1cnc(-c2ccccn2)nc1NC(=O)C1CCCc2cc(C#N)ccc21 (stereo not shown) [drawing 3699] | 76 to 100 | 76 to 100 | 25 to 50 | 51 to 75
Oc1nc(-c2ccccn2)nc2c(-c3cccc(C(F)(F)F)c3)csc12 [drawing 3745] | 25 to 50 | 51 to 75 | 51 to 75 | 25 to 50
COc1ccc(F)cc1-c1csc2c(O)nc(-c3ccccn3)nc12 [drawing 3746] | 51 to 75 | 51 to 75 | 51 to 75 | 51 to 75
Oc1nc(-c2ccccn2)nc2c(-c3ccccc3F)csc12 [drawing 3740] | 76 to 100 | 76 to 100 | 51 to 75 | 51 to 75
Oc1nc(-c2ccccn2)nc2cc(-c3ccncc3)sc12 [drawing 3879] | 51 to 75 | 25 to 50 | 51 to 75 | 51 to 75
Oc1nc(-c2ccccn2)nc2c(-c3cc(Cl)cc(Cl)c3)csc12 [drawing 3720] | 51 to 75 | 25 to 50 | 25 to 50 | 25 to 50
N#Cc1ccc(COCC(=O)Nc2nc(-c3ccccn3)nc3sccc23)cc1 [drawing 3688] | 76 to 100 | 76 to 100 | 76 to 100 | 25 to 50
Oc1nc(-c2ccccn2)nc2c(C3CCCC3)csc12 [drawing 3814] | 76 to 100 | 76 to 100 | 51 to 75 | 51 to 75
CC(C)Oc1cnc(-c2ccccn2)nc1O [drawing 3800] | 76 to 100 | 76 to 100 | 51 to 75 | 51 to 75

More lines, now with the values ahead:

inhibition at 20 µM [1] [%] | inhibition at 20 µM [2] [%] | inhibition at 20 µM [3] [%] | inhibition at 20 µM [4] [%] | Compound
76 to 100 | 76 to 100 | 76 to 100 | 51 to 75 | Oc1nc(-c2ccccn2)nc2c(-c3cc(CN4CCCC4)ccc3F)csc12 [drawing 3821]
76 to 100 | 51 to 75 | 25 to 50 | 51 to 75 | OCC1(c2ccc(-c3nc(-c4ccccn4)nc(O)c3Oc3ccccc3)cc2)CC1 [drawing 3852]
51 to 75 | 51 to 75 | 51 to 75 | 51 to 75 | Oc1nc(-c2ccccn2)nc2c1c(-c1ccccc1)nn2-c1ccccn1 [drawing 3857]
76 to 100 | 76 to 100 | 51 to 75 | 51 to 75 | O=C(O)c1cc2nc(-c3ccccn3)nc(O)c2s1 [drawing 3722]
76 to 100 | 76 to 100 | 51 to 75 | 51 to 75 | Nc1cccc(-c2csc3c(O)nc(-c4ccccn4)nc23)n1 [drawing 3832]
51 to 75 | 51 to 75 | 76 to 100 | 25 to 50 | COc1cccc(-c2csc3c(O)nc(-c4ccccn4)nc23)c1 [drawing 3744]
76 to 100 | 51 to 75 | 51 to 75 | 51 to 75 | Oc1nc(-c2ccccn2)nc2c(CC3CCNCC3)csc12 [drawing 3805]
51 to 75 | 76 to 100 | 25 to 50 | 51 to 75 | Cc1c(C(=O)O)sc2c(O)nc(-c3ccccn3)nc12 [drawing 3794]
51 to 75 | 51 to 75 | 25 to 50 | 51 to 75 | COCC(C)Nc1nc(-c2ccccn2)nc2sc(-c3ccncc3)c(-c3ccccc3)c12 (stereo not shown) [drawing 3859]
76 to 100 | 76 to 100 | 51 to 75 | 51 to 75 | Cc1cc2nc(-c3ccccn3)nc(N)c2s1 [drawing 3708]
76 to 100 | 76 to 100 | 51 to 75 | 51 to 75 | O=C(CCc1nn[nH]n1)Nc1nc(-c2ccccn2)nc2sccc12 [drawing 3762]
76 to 100 | 51 to 75 | 51 to 75 | 51 to 75 | O=C(c1csc2c(O)nc(-c3ccccn3)nc12)N1CCC(c2ccncc2)C1 (stereo not shown) [drawing 3711]
76 to 100 | 76 to 100 | 51 to 75 | 51 to 75 | O=C(c1cc2nc(-c3ccccn3)nc(O)c2s1)N1CCN(c2ccccc2)CC1 [drawing 3713]
76 to 100 | 76 to 100 | 51 to 75 | 51 to 75 | Oc1nc(-c2ccccn2)nc2c(CC3CCNC3)csc12 (stereo not shown) [drawing 3844]
76 to 100 | 76 to 100 | 51 to 75 | 51 to 75 | O=C(COCc1cccnc1)Nc1nc(-c2ccccn2)nc2sccc12 [drawing 3701]
76 to 100 | 76 to 100 | 51 to 75 | 51 to 75 | Oc1nc(-c2ccccn2)nc2scc(Br)c12 [drawing 3623]
51 to 75 | 51 to 75 | 51 to 75 | 51 to 75 | Oc1nc(-c2ccccn2)nc2c(-c3cc(F)cc(F)c3)csc12 [drawing 3772]
76 to 100 | 76 to 100 | 76 to 100 | 76 to 100 | COc1cnc(-c2nccn2C)nc1O [drawing 3831]
76 to 100 | 76 to 100 | 51 to 75 | 51 to 75 | Oc1nc(-c2ccccn2)nc2c(-c3ccc(OC(F)F)cc3F)csc12 [drawing 3748]
76 to 100 | 76 to 100 | 51 to 75 | 51 to 75 | COCCNc1nc(-c2ccccn2)nc2c1c(-c1ccccc1)nn2-c1ccccn1 [drawing 3856]
76 to 100 | 76 to 100 | 51 to 75 | 51 to 75 | O=C(COCc1ccncc1)Nc1nc(-c2ccccn2)nc2sccc12 [drawing 3700]
76 to 100 | 76 to 100 | 51 to 75 | 76 to 100 | COCCNc1nc(-c2cn(C)cn2)nc2sc(-c3ccncc3)c(-c3ccccc3)c12 [drawing 3848]
